From patent US5721366A, “Platelet aggregation inhibitors” (G. D. Searle & Co, priority 1995, dated 1998)
Where a name gives a salt, the structure may show the parent alone.

Assays:
[1] = system: Human platelet aggregation (platelet-rich plasma); assay: Inhibition of Human Platelet Aggregation (PRP), collagen-induced; format: cell-based; conditions: Homo sapiens, Platelet, collagen-induced aggregation (4 μg/ml final), 37° C.
Procedure: Inhibition of Human Platelet Aggregation (PRP)
Platelet rich plasma was prepared from citrated whole blood (3.8% Na citrate, 1:10 in 30 ml blood) withdrawn from the antecubital vein (n=1). PRP was prepared by centrifugation (Sorvall RC3C, DuPont, Wilmington, Del.) of the whole blood at 1000×g for 3 min, allowing the centrifuge to stop without braking. Platelet poor plasma (PPP) was prepared by centrifugation of PRP at 2000×g for 10 min. […] Aggregation was measured in a 4 channel aggregometer (model PAP-4C, Bio/Data Corp., Hatboro, Pa.). Aliquots of PPP were used to standardize the aggregometer for measurement of maximum light transmission. Platelet aggregation was measured as an increase in light transmission.
PRP (430 μl aliquot) was preincubated with 50 μl of various concentrations of compound (dissolved in 10% ETOH/water at a concentration of 10^-3 M. Compounds were diluted to desired concentration with 0.9% NaCl) for 2 min at 37° C., with stirring at 900 rpm, in the aggregometer. The stock collagen (Chronolog, Havertown, Pa., equine tendon) was diluted 1:10 with a 5% dextrose and water solution. The vehicle control response was obtained by adding 20 μl diluted collagen to the untreated aliquot of PRP+50 μl saline. Final collagen concentration was 4 μg/ml. Aggregation was recorded for 3 min following the addition of collagen. […] Percent inhibition was calculated by comparing treated and control samples. IC50 's were calculated graphically from dose-response curves. Average values and standard errors were calculated using the IC50 's of the individual experiments. Statistical analyses were done by an unequal variance, unpaired Student's t-test [Minitab Reference Manual, Minitab Inc., State College, Pa. (1988)]. Statistical significance was assumed when p<0.05 was found.
(§1) (NT in the following table indicates not tested.)

[2] = system: Dog platelet aggregation (platelet-rich plasma); assay: In-Vitro Platelet Aggregation in PRP (Dog), collagen-induced; format: cell-based; conditions: Canis lupus familiaris, Platelet, collagen-induced aggregation (33 μg/ml final), 37° C.
Procedure: In-Vitro Platelet Aggregation in PRP--(Dog)
Healthy male or female dogs were fasted for 8 hours prior to drawing blood; then 60 ml whole blood was collected using a butterfly needle and 30 cc plastic syringe with 6 ml of 0.129M buffered sodium citrate (3.8%) (drawn from a minimum of 3 dogs and blood was pooled). The syringe was rotated carefully as blood was drawn to mix the citrate. Platelet-rich plasma (PRP) was prepared by centrifugation at 975×g for 3.17 minutes at room temperature, allowing the centrifuge to coast to a stop without braking. The PRP was removed from the blood with a plastic pipette and placed in a plastic capped 50 ml Corning conical sterile centrifuge tube which was held at room temperature. Platelet poor plasma (PPP) was prepared by centrifuging the remaining blood at 2000×g for 15 minutes at room temperature allowing the centrifuge to coast to a stop without braking. The platelet count in the PRP was routinely 2-4×10^8 platelets per ml. 400 μl of the PRP preparation and 50 μl of the compound to be tested or saline were preincubated for 2 minutes at 37° C. in a BioData aggregometer (BioData, Horsham, Pa.). 50 μl of collagen (diluted 1:3 with 5% dextrose and water solution, 33 μg/ml final concentration, equine tendon, Chronolog, Havertown, Pa.) was added to the cuvettes and the aggregation was monitored for 3 minutes. All compounds are tested in duplicate.
Results are calculated as follows:
Percent of control=[(maximal OD minus initial OD of compound) divided by (maximal OD minus initial OD of control saline)]×100. The % inhibition=100-(percent of control).
as §1

Compound | IC50 [1] | IC50 [2]
N=C(N)c1ccc(N2CCC(CC(=O)NC[C@H](NC(=O)OCc3ccccc3)C(=O)O)C2=O)cc1 (stereo partly drawn) [Example 16, 3-[[[1-[4-(aminoiminomethyl)phenyl]-2-oxo-3-pyrrolidinyl]acetyl]amino]-N-[(phenylmethoxy)carbonyl]-L-alanine] | 310 nM | 100 nM
C=C[C@H](CC(=O)O)NC(=O)NC1CCN(c2ccc(C(=N)N)cc2)C1=O (stereo partly drawn) [Example 18, 3(S)-[[[[1-[4-(aminoiminomethyl]phenyl]-2-oxo-3-pyrrolidinyl]amino]carbonyl]amino]-4-pentenoic acid] | 100 nM | 170 nM
C[C@@H](CCCC1CCN(c2ccc(C(=N)N)cc2)C1=O)CC(=O)O (stereo partly drawn) [Example 19, 1-[4-(aminoiminomethyl)phenyl]-βS-methyl-2-oxo-3-pyrrolidinehexanoic acid, monohydrochloride.] | 90 nM | 150 nM
N=C(N)c1ccc(N2CCCC(CC(=O)NC(C#Cc3ccccc3)CC(=O)O)C2=O)cc1 (stereo not drawn) [Example 28, 3-[[[1-[4-(aminoiminomethyl)phenyl]-2-oxo-3-piperidinyl]acetyl]amino]-5-phenyl-4-pentynoic acid.] | 190 nM | 170 nM
CC(CC(=O)O)NC(=O)CC1CCCN(c2ccc(C(=N)N)cc2)C1=O (stereo not drawn) [Example 30, 3-[[[1-[4-(aminoiminomethyl)phenyl]-2-oxo-3-piperidinyl]acetyl]amino]-butanoic acid] | 280 nM | 380 nM
N=C(N)c1ccc(N2CCCC(CC(=O)NC(CC(=O)O)c3ccccc3)C2=O)cc1 (stereo not drawn) [Example 32, 3-[[[1-[4-(aminoiminomethyl)phenyl]-2-oxo-3-piperidinyl]acetyl]amino]-3-phenylpropanoic acid] | 160 nM | 250 nM
